# Residue numbers refer to the chain shown, from its start. Read-outs that look alike come from different tables or passages of the source. Non-standard residues stand in square brackets, D forms with d. Residues, ends and D or L forms follow the SMILES beside them. Dolaproine = CO[C@@H]([C@@H]1CCCN1)[C@@H](C)C(=O)O; Dil = CC[C@H](C)[C@H](NC)[C@@H](CC(=O)O)OC; NMeV = CN[C@H](C(=O)O)C(C)C
# T1: DLK1 over-expressed on MIA-PaCa-2 cells (UniProt P80370 24-383, limits assumed)
# T1 sequence (looked up): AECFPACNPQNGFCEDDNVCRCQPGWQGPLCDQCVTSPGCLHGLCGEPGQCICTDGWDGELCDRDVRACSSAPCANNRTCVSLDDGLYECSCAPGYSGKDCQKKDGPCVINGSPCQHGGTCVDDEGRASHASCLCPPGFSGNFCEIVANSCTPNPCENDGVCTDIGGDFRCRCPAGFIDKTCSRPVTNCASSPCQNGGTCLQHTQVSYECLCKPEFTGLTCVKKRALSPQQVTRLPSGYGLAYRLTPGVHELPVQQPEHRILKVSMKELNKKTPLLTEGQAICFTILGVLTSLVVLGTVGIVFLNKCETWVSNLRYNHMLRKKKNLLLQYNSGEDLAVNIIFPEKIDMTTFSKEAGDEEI
# B1: ADC6 (18A5 conjugated to Compound 6) (other)
# VH: QVQLVQSGGAVVQPGHSLRLSCEASGFKFKDYGMHWVRQAPGKGLEWLAVISHDGRNKNYADSVKGRLTISRDNSKNTLSFQMNSLRAEDTAVYYCVRDWSYAFDIWGQGTLVTVSS
# VL: DIQMTQSPSFLSASVGDRVNITCRASQDISRRLAWYQQKPGKAPKLLIYGAASLQSAVASRFSGSGSGTEFTLTISSLQPEDFANYYCQQIYTTPLTFGGGTKVEIK
# B2: 18A5: anti-DLK1 human monoclonal antibody, heavy chain SEQ ID NO. 101, light chain SEQ ID NO. 102 (antibody, V domains shown)
# VH: B1 VH
# VL: B1 VL
# B3: 27F7: anti-DLK1 human monoclonal antibody, heavy chain SEQ ID NO. 109, light chain SEQ ID NO. 110 (antibody, V domains shown)
# VH: QMQLVESGGGLVKPGGSLTLSCDATGFNFGSYYMNWVRQAPGKGLEWLAHISSTGRTIYYADSVKGRFTISRDNAKSSLDLQMNSLRAEDTAVYYCARDQGYPFGMDVWGHGTTVTVSS
# VL: QLVLTQPSSVSGAPGQRVTISCTGSSSNIGAGYDVDWYQQLPGTAPKLLIYGNTNRPSGVPDRFSGSKSGTSASLAITGLQAEDDSDYYCQSYDSSLSAWVFGGGTKLTVL
# B4: 18A5_LS_1A10: 18A5 mutant anti-DLK1 antibody, heavy chain SEQ ID NO. 101, light chain SEQ ID NO. 126 (antibody, V domains shown)
# VH: B1 VH
# VL: DIQMTQSPSSLSASLGDRVTITCRASQGISSALAWYQQKPGKAPKLLIYAASSLQSGVPSRFSGSGSGTDFTLTINSLQPEDFATYYCQQSYTTPLTFGGGTKVEIK
# B5: 18A5_AM_1A12: 18A5 mutant anti-DLK1 antibody, heavy chain SEQ ID NO. 127, light chain SEQ ID NO. 128 (antibody, V domains shown)
# VH: B1 VH with A10G, H16G, E23A
# VL: DIQMTQSPSFLSASVGDRVTITCRASHDISSSLAWYQQKSGKAPKLLIYSASNLKSGVPSRFSGSGSGTDFSLTISSLQPEDFATYYCQQSYTTVLTFGGGTKLEIK
# How the values were obtained:
# [1] = system: MIA-PaCa-2-DLK1 over-expressing cell line; test: In vitro cytotoxicity (cell proliferation inhibition, SRB dye), DLK1 over-expressing cells; assay type: cell-based, human; conditions: MIA-PaCa2 DLK1 positive
# Protocol: (§1) The cancer cell line cell proliferation inhibition activity of the drugs stated in Table 3 below and the ADCs prepared in <Embodiment 3> above was measured. For this purpose, commercially available human pancreatic cancer cell line MIA-PaCa2 (DLK1 negative or normal) and MIA-PaCa-2-DLK1 over-expressing cell line were used. As the drug, MMAF-OMe was used as the ADC, and the ADCs of Table 2 were used. In a 96-well plate, each well was seeded with 4,000 to 5,000 of the respective cancer cell lines for the 72-hour treatment group, 2,000 to 3,000 cells for the 96-hour treatment group, and 800 to 1,000 cells for the 168-hour treatment group. After culturing for 24 hours, they were treated with the drug and ADC at a concentration of 0.0015 to 10.0 nM (serially diluted threefold). 72, 96 and 168 hours later, respectively, the number of live cells was measured using SRB (Sulforhodamine B) dye.
# [2] = system: MIA-PaCa2 (DLK1 negative or normal); test: In vitro cytotoxicity (cell proliferation inhibition, SRB dye), DLK1-negative cells; assay type: cell-based, human
# Protocol: as §1
# [3] = biological target: T1, DLK1 over-expressed on MIA-PaCa-2 cells; test: cell-based or functional assay
# [4] = system: cells where DLK1 is overexpressed; conditions: confirmed in Korean Patent Application No. 10-2018-0107639; cited from earlier work
molecule,measurement,setting,value
CC[C@H](C)[C@@H]([C@@H](CC(=O)N1CCC[C@H]1[C@H](OC)[C@@H](C)C(=O)N[C@@H](Cc1ccccc1)C(=O)OC)OC)N(C)C(=O)[C@@H](NC(=O)[C@@H](NC)C(C)C)C(C)C [MMAF-OMe] (H-[NMeV]V[Dil][Dolaproine]F-OMe),IC50,"[1]; 72 hr treatment, read-out: IC50 MIA-PaCa2-DLK1 positive 72 hr",300 pM
same,IC50,"[1]; 96 h treatment, read-out: IC50 MIA-PaCa2-DLK1 positive 96 h",130 pM
same,IC50,"[1]; 168 hr treatment, read-out: IC50 MIA-PaCa2-DLK1 positive 168 hr",60 pM
same,IC50,"[2]; 72 hr treatment, read-out: IC50 MIA-PaCa2-DLK1 negative 72 hr",410 pM
same,IC50,"[2]; 96 h treatment, read-out: IC50 MIA-PaCa2-DLK1 negative 96 h",120 pM
same,IC50,"[2]; 168 hr treatment, read-out: IC50 MIA-PaCa2-DLK1 negative 168 hr",120 pM
B1,"IC50 (nM), cell proliferation inhibition (SRB), MIA-PaCa2-DLK1 positive, 168 hr",[3],0.21 nM
B2,binding to cells where DLK1 is overexpressed,[4],capable of binding to cells where DLK1 is overexpressed
B3,binding to cells where DLK1 is overexpressed,[4],capable of binding to cells where DLK1 is overexpressed
B4,binding to cells where DLK1 is overexpressed,[4],capable of binding to cells where DLK1 is overexpressed
B5,binding to cells where DLK1 is overexpressed,[4],capable of binding to cells where DLK1 is overexpressed
